Results: patent publication EP4603105A1, “PHARMACEUTICAL COMPOSITION CONTAINING CYCLIC COMPOUND HAVING SELECTIVE KRAS INHIBITORY EFFECT AGAINST HRAS AND NRAS” (CHUGAI SEIYAKU KABUSHIKI KAISHA, priority 2022, dated 2024)
*1 amine or outer side, *2 acyl side, *3 side chain or, on linkers, in order; H or OH if unused. Where a SMILES comes first, the peptide text is derived from it. Bridges are numbered along the chain shown (N, C = ends). [ ]: non-standard residue; d: D form. The star is where a group is joined. hPhe(3-Cl-4-CF3) = N[C@@H](CCc1ccc(C(F)(F)F)c(Cl)c1)C(=O)O; NPrPhe(4-CF3) = CCCN[C@@H](Cc1ccc(C(F)(F)F)cc1)C(=O)O; NEtAsp = CCN([C@@H](CC(=O)[*:3])C(=O)[*:2])[*:1]; Piperazinyl(4-(3-oxetanyl)) = C1OCC1N1CCN(*)CC1; NEtPhe(4-Me) = CCN[C@@H](Cc1ccc(C)cc1)C(=O)O; Abu(4,4,4-F3) = N[C@@H](CC(F)(F)F)C(=O)O; NMeGly(cPent) = CN[C@H](C(=O)O)C1CCCC1; Hyp = O=C(O)[C@@H]1C[C@@H](O)CN1; NMeD = CN[C@@H](CC(=O)O)C(=O)O; NMeL = CN[C@@H](CC(C)C)C(=O)O; Oxazolidin(3-yl) = C1CN(*)CO1; Morpholide = C1CN(*)CCO1; NMeA = CN[C@@H](C)C(=O)O; Ac5c = NC1(C(=O)O)CCCC1; Aze = O=C(O)[C@@H]1CCN1; Ac4c = NC1(C(=O)O)CCC1; Sar = CNCC(=O)O

Columns and labels:
[1] = target: GDP-bound NRAS wild-type protein (Homo sapiens, UniProt P01111); assay: Binding to NRAS by surface plasmon resonance (SPR), KD and KD ratio to KRAS
Method in brief: (§1)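 Each cycle, GDP-bound biotin-Avi RAS was captured (~100–300 RU), compound concentrations were injected low to high for 75 s each at 100 µL/min, then the chip was regenerated. Buffer: HBS pH 7.4, 10 mM MgCl2, 10 µM GDP, 1 mM DTT, 4% DMSO; 30°C. KD from a 1:1 binding model.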

HRAS wild-type protein = HRAS wild-type protein (Homo sapiens, UniProt P01112); assay: Binding to HRAS by surface plasmon resonance (SPR), KD and KD ratio to KRAS
Method in brief: as §1

[2] = tested on: human lung cancer strain NCI-H441; type: cell-based
Method in brief: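 Signal came from […] measured per well once the reagent was added. Beforehand, cells were cultured at 37°C and 5% carbon dioxide on a compound series serially diluted in dimethyl sulfoxide.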

[3] = ratio of KD for GDP-bound NRAS wild-type protein to KD for KRAS
[4] = ratio of KD for HRAS wild-type protein to KD for KRAS
[5] = ratio of the KD value with respect to GDP-bound NRAS wild-type protein to the KD value with respect to KRAS
[6] = ratio of the KD value with respect to HRAS wild-type protein to the KD value with respect to KRAS

GDP-bound NRAS wild-type protein, sequence (P01111 whole entry): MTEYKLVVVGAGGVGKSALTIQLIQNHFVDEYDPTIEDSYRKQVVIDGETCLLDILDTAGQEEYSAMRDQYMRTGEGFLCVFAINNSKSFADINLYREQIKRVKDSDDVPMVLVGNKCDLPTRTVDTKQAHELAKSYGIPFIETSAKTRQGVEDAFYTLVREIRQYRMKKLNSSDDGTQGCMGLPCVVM
HRAS wild-type protein, sequence (P01112 whole entry): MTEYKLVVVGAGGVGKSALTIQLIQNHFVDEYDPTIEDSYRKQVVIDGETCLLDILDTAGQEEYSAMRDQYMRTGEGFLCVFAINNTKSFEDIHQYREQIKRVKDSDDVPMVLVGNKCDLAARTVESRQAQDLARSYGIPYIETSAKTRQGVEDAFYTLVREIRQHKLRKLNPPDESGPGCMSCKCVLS

Structure (SMILES) | IC50 [2] [nM] | NRAS /KRAS [1, 3] | HRAS /KRAS (HRAS wild-type protein; [4]) | NRAS /KRAS [1, 5] | HRAS /KRAS (HRAS wild-type protein; [6]) | NRAS /KRAS ([1]; ratio of KD with respect to GDP-bound NRAS wild-type protein to KD with respect to KRAS) | HRAS /KRAS (HRAS wild-type protein; ratio of KD with respect to HRAS wild-type protein to KD with respect to KRAS)
CCC[C@H]1C(=O)N[C@@H](C2CCOCC2)C(=O)N(C)CC(=O)N(C)[C@H]2C/C=C\CCN(C2=O)[C@@H](Cc2ccc(C(F)(F)F)cc2)C(=O)N(C)CC(=O)N[C@@H](CCc2ccc(C(F)(F)F)c(Cl)c2)C(=O)N2C[C@H](OCC)C[C@H]2C(=O)NC2(CC(C)(C)C2)C(=O)N(C)[C@@H](CC(C)(C)C)C(=O)N(C)[C@H](C(=O)N(C)C)CC(=O)N1C [PP3022] | 51.4 | AA (a compound having 20 or more is denoted as AA) | A (a compound having 10 or more and less than 20 is denoted as A) |  |  |  | 
CCO[C@@H]1C[C@H]2C(=O)NC3(CCC3)C(=O)N(C)[C@@H](C3CCCC3)C(=O)N(C)[C@H](C(=O)N(C)CC)CC(=O)N(C)[C@@H](CC(F)F)C(=O)N[C@@H]([C@@H](C)CC)C(=O)N(C)CC(=O)N(C)[C@H]3C/C=C\CCN(C3=O)[C@@H](Cc3ccc(C(F)(F)F)cc3)C(=O)N(C)CC(=O)N[C@@H](CCc3cc(F)c(C(F)(F)F)c(F)c3)C(=O)N2C1 [PP1303] | 4.2 |  |  |  |  | AA (a compound having 20 or more is denoted as AA) | A (a compound having 10 or more and less than 20 is denoted as A)
CCCN1C(=O)[C@@H]2CCN2C(=O)[C@H](C)N(C)C(=O)[C@H](CC(F)(F)F)NC(=O)[C@H](CC(C)C)N(C)C(=O)C[C@@H](C(=O)N2CCOCC2)N(C)C(=O)[C@H](C2CCCC2)N(C)C(=O)C2(CCCC2)NC(=O)[C@@H]2CCCN2C(=O)[C@H](CCc2ccc(C(F)(F)F)c(Cl)c2)NC(=O)CN(C)C(=O)[C@@H]1Cc1ccc(C(F)(F)F)cc1 [PP0270] ([NMeL][Abu(4,4,4-F3)][NMeA][Aze][NPrPhe(4-CF3)][Sar][hPhe(3-Cl-4-CF3)]P[Ac5c][NMeGly(cPent)][NMeD]-Morpholide; lactam N-11) | 8.5 | C (A compound having a KD ratio of 0.1 or more and less than 3 is denoted as C) | B (a compound having 3 or more and less than 10 is denoted as B) |  |  |  | 
CCCN1C(=O)[C@@H]2CCN2C(=O)[C@H](C)N(C)C(=O)[C@H]([C@@H](C)CC)NC(=O)[C@H](CC(C)C)N(C)C(=O)C[C@@H](C(=O)N2CCOC2)N(C)C(=O)[C@H](C2CCCC2)N(C)C(=O)C2(CCCC2)NC(=O)[C@@H]2CCCN2C(=O)[C@H](CCc2ccc(C(F)(F)F)c(Cl)c2)NC(=O)CN(C)C(=O)[C@@H]1Cc1ccc(C(F)(F)F)cc1 [PP0183] ([NMeL]I[NMeA][Aze][NPrPhe(4-CF3)][Sar][hPhe(3-Cl-4-CF3)]P[Ac5c][NMeGly(cPent)][NMeD]-{Oxazolidin(3-yl)}; lactam N-11) | 1.6 | C (A compound having a KD ratio of 0.1 or more and less than 3 is denoted as C) | B (a compound having 3 or more and less than 10 is denoted as B) |  |  |  | 
CCO[C@@H]1C[C@H]2C(=O)NC3(CCC3)C(=O)N(C)[C@@H](C3CCCC3)C(=O)N(C)[C@H](C(=O)N3CCOCC3)CC(=O)N(C)[C@@H](CC(C)C)C(=O)N[C@@H]([C@@H](C)CC)C(=O)N(C)CC(=O)N(C)[C@H]3CCCCN(C3=O)[C@@H](Cc3ccc(C(F)(F)F)cc3)C(=O)N(C)CC(=O)N[C@@H](CCc3cc(F)c(C(F)(F)F)c(F)c3)C(=O)N2C1 [PP0578] | 2.2 |  |  | B (a compound having 3 or more and less than 10 is denoted as B) | B (a compound having 3 or more and less than 10 is denoted as B) |  | 

Further molecules by falling IC50 [2], results first:

IC50 [2] [nM] | Structure (SMILES) | NRAS /KRAS [1, 3] | HRAS /KRAS (HRAS wild-type protein; [4]) | NRAS /KRAS [1, 5] | HRAS /KRAS (HRAS wild-type protein; [6]) | NRAS /KRAS ([1]; ratio of KD with respect to GDP-bound NRAS wild-type protein to KD with respect to KRAS) | HRAS /KRAS (HRAS wild-type protein; ratio of KD with respect to HRAS wild-type protein to KD with respect to KRAS)
108 | CCC[C@H]1C(=O)N[C@@H]([C@@H](C)CC)C(=O)N(C)CC(=O)N(C)[C@H]2C/C=C\CCN(C2=O)[C@@H](Cc2ccc(C(F)(F)F)cc2)C(=O)N(C)CC(=O)N[C@@H](CCc2ccc(C(F)(F)F)c(OC)c2)C(=O)N2CCCC[C@H]2C(=O)NC2(CC(C)(C)C2)C(=O)N(C)[C@@H](C(CC)CC)C(=O)N(C)[C@H](C(=O)N(C)C)CC(=O)N1C [PP2934] | AA (a compound having 20 or more is denoted as AA) | A (a compound having 10 or more and less than 20 is denoted as A) |  |  |  | 
32.1 | CCO[C@@H]1C[C@H]2C(=O)NC3(CC(C)(C)C3)C(=O)N(C)[C@@H](C(CC)CC)C(=O)N(C)[C@H](C(=O)N3CCCC3)CC(=O)N(C)[C@H]3CCC/C=C/c4ccc(cc4)C[C@@H](C(=O)N(C)CC(=O)N[C@@H](CCc4ccc(Cl)c(Cl)c4)C(=O)N2C1)N1CC/C=C\C[C@@H](C1=O)N(C)C(=O)CN(C)C(=O)[C@H]([C@@H](C)CC)NC3=O [PP2581] | AA (a compound having 20 or more is denoted as AA) | A (a compound having 10 or more and less than 20 is denoted as A) |  |  |  | 
14.4 | CC[C@H](C)[C@@H]1NC(=O)[C@H](CC(C)C)N(C)C(=O)C[C@@H](C(=O)N2CCOCC2)N(C)C(=O)[C@H](C2CCCC2)N(C)C(=O)C2(CCCC2)NC(=O)[C@@H]2CCCN2C(=O)[C@H](CCc2ccc(C(F)(F)F)c(Cl)c2)NC(=O)CN(C)C(=O)[C@H](Cc2ccc(C)cc2)N(CC)C(=O)CN(C)C(=O)CN(C)C1=O [PP0022] ([NMeL]I[Sar][Sar][NEtPhe(4-Me)][Sar][hPhe(3-Cl-4-CF3)]P[Ac5c][NMeGly(cPent)][NMeD]-Morpholide; lactam N-11) | B (a compound having 3 or more and less than 10 is denoted as B) | C (A compound having a KD ratio of 0.1 or more and less than 3 is denoted as C) |  |  |  | 
3 | CCCN1C(=O)[C@@H]2CCN2C(=O)CN(C)C(=O)[C@H]([C@@H](C)CC)NC(=O)[C@H](CC(C)C)N(C)C(=O)C[C@@H](C(=O)N(C)C)NC(=O)[C@H](C2CCCC2)N(C)C(=O)C2(CCCC2)NC(=O)[C@@H]2C[C@@H](OCC)CN2C(=O)[C@H](CCc2ccc(C(F)(F)F)c(Cl)c2)NC(=O)CN(C)C(=O)[C@@H]1Cc1ccc(C(F)(F)F)cc1 [PP0389] ([NMeL]I[Sar][Aze][NPrPhe(4-CF3)][Sar][hPhe(3-Cl-4-CF3)][Hyp](Et)[Ac5c][NMeGly(cPent)]D-NMe2; lactam N-11) |  |  | C (A compound having a KD ratio of 0.1 or more and less than 3 is denoted as C) | B (a compound having 3 or more and less than 10 is denoted as B) |  | 
2.2 | CCCN1C(=O)CN(C)C(=O)CN(C)C(=O)[C@H]([C@@H](C)CC)NC(=O)[C@H](CC(C)C)N(C)C(=O)C[C@@H](C(=O)N(C)C)N(CC)C(=O)[C@H](C2CCCC2)N(C)C(=O)C2(CCC2)NC(=O)[C@@H]2CCCN2C(=O)[C@H](CCc2ccc(C(F)(F)F)c(Cl)c2)NC(=O)CN(C)C(=O)[C@@H]1Cc1ccc(C(F)(F)F)cc1 [PP1956] ([NMeL]I[Sar][Sar][NPrPhe(4-CF3)][Sar][hPhe(3-Cl-4-CF3)]P[Ac4c][NMeGly(cPent)][NEtAsp]-NMe2; lactam N-11) |  |  | B (a compound having 3 or more and less than 10 is denoted as B) | B (a compound having 3 or more and less than 10 is denoted as B) |  | 
2.1 | CCCN1C(=O)[C@@H]2CCN2C(=O)[C@H](C)N(C)C(=O)[C@H]([C@@H](C)CC)NC(=O)[C@H](CC(C)C)N(C)C(=O)C[C@@H](C(=O)N2CCN(C3COC3)CC2)N(C)C(=O)[C@H](C2CCCC2)N(C)C(=O)C2(CCCC2)NC(=O)[C@@H]2CCCN2C(=O)[C@H](CCc2ccc(C(F)(F)F)c(Cl)c2)NC(=O)CN(C)C(=O)[C@@H]1Cc1ccc(C(F)(F)F)cc1 [PP0184] ([NMeL]I[NMeA][Aze][NPrPhe(4-CF3)][Sar][hPhe(3-Cl-4-CF3)]P[Ac5c][NMeGly(cPent)][NMeD]-{Piperazinyl(4-(3-oxetanyl))}; lactam N-11) | C (A compound having a KD ratio of 0.1 or more and less than 3 is denoted as C) | B (a compound having 3 or more and less than 10 is denoted as B) |  |  |  | 
